Assay results published in ChEMBL document CHEMBL3352102, “Synthesis and bioevaluation of 2-phenyl-4-methyl-1,3-selenazole-5-carboxylic acids as potent xanthine oxidase inhibitors” (Eur J Med Chem, 2014).

How the values were obtained:
[1] = biological target: T1, Xanthine dehydrogenase/oxidase (Bos taurus, UniProt P80457); test: Inhibition of bovine xanthine oxidase assessed as inhibition of uric acid formation after 30 mins by spectrophotometry
[2] = biological target: T1, Xanthine dehydrogenase/oxidase; test: Mixed-type inhibition of bovine xanthine oxidase assessed as inhibition of uric acid formation by Lineweaver-Burk plot
[3] = biological target: T1, Xanthine dehydrogenase/oxidase; test: Mixed-type inhibition of reduced form of bovine xanthine oxidase assessed as inhibition of uric acid formation by Lineweaver-Burk plot; conditions: cattle
[4] = biological target: T1, Xanthine dehydrogenase/oxidase; test: Mixed-type inhibition of oxidized form of bovine xanthine oxidase assessed as inhibition of uric acid formation by Lineweaver-Burk plot; conditions: cattle
[5] = biological target: T1, Xanthine dehydrogenase/oxidase; test: Mixed-type inhibition of bovine xanthine oxidase assessed as inhibition of uric acid formation by secondary Lineweaver-Burk plot
[6] = biological target: T1, Xanthine dehydrogenase/oxidase; test: Inhibition of bovine xanthine oxidase assessed as inhibition of uric acid formation at 10000 nM after 30 mins by spectrophotometry; conditions: cattle, 0.5 h

T1 sequence (P80457 whole entry): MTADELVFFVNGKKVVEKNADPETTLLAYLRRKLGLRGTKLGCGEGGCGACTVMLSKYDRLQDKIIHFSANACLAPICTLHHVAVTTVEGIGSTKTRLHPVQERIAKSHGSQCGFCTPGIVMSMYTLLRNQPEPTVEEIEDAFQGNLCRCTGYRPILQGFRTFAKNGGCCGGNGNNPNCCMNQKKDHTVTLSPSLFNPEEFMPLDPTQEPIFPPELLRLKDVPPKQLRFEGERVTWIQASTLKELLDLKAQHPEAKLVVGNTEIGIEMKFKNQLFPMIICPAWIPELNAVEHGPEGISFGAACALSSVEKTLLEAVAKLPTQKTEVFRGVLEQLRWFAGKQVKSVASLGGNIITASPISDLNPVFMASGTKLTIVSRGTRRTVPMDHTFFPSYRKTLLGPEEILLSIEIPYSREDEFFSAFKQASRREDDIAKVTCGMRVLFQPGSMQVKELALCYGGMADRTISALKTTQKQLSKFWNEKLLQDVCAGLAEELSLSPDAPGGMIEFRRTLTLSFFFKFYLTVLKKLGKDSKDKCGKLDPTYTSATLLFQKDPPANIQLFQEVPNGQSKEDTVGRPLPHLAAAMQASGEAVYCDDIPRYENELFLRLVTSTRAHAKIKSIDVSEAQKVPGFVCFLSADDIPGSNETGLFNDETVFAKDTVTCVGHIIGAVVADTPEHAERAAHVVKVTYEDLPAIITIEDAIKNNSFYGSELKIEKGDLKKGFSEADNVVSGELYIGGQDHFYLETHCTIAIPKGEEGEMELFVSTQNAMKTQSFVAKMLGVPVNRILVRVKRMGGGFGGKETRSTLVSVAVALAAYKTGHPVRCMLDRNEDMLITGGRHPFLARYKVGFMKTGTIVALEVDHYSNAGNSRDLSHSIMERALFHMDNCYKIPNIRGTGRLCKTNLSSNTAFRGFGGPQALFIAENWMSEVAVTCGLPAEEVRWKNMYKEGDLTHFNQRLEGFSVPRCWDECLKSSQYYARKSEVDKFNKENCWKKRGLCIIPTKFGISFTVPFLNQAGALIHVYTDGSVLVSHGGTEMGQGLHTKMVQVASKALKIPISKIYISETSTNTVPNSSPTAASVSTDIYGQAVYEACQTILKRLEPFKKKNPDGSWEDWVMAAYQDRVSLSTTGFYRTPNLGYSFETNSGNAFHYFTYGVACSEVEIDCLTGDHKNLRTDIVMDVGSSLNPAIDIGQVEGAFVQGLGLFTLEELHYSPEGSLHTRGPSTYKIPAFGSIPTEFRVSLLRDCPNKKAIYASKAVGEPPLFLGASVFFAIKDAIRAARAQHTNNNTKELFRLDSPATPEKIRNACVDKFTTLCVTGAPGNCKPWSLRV

Row | SMILES | IC50 [1] | also measured
1 | Cc1nc(-c2ccc(OCCC(C)C)c([N+](=O)[O-])c2)[se]c1C(=O)O | 65.6 nM | 
2 | CCOc1ccc(-c2nc(C)c(C(=O)O)[se]2)cc1[N+](=O)[O-] | 82.5 nM | 
3 | CCCCOc1ccc(-c2nc(C)c(C(=O)O)[se]2)cc1[N+](=O)[O-] | 49.2 nM | 
4 | Cc1nc(-c2ccc(OCC(C)C)c([N+](=O)[O-])c2)[se]c1C(=O)O | 33.7 nM | 
5 | C=CCOc1ccc(-c2nc(C)c(C(=O)O)[se]2)cc1[N+](=O)[O-] | 16.1 nM | 
6 | Cc1nc(-c2ccc(OCc3ccccc3)c([N+](=O)[O-])c2)[se]c1C(=O)O | 40.3 nM | 
7 | CCCCOc1ccc(-c2nc(C)c(C(=O)O)[se]2)cc1C#N | 13.2 nM | 
8 | C=CCOc1ccc(-c2nc(C)c(C(=O)O)[se]2)cc1C#N | 5.5 nM | Ki [2]: 0.9 nM; inhibition (INH) [3]: Active; inhibition (INH) [4]: Active; Ki [5]: 2.3 nM
9 | COc1ccc(-c2nc(C)c(C(=O)O)[se]2)cc1C#N | 30.6 nM | 
10 | CCCOc1ccc(-c2nc(C)c(C(=O)O)[se]2)cc1C#N | 16.2 nM | 
11 | CCC(C)Oc1ccc(-c2nc(C)c(C(=O)O)[se]2)cc1C#N (stereo not drawn) | 10.4 nM | 
12 | CCCCCOc1ccc(-c2nc(C)c(C(=O)O)[se]2)cc1C#N | 45.6 nM | 
13 | C#CCOc1ccc(-c2nc(C)c(C(=O)O)[se]2)cc1C#N | 53.8 nM | 
14 | C=CCOc1ccc(-c2nc(C)c(C(=O)OCC)[se]2)cc1C#N |  | inhibition at 10 µM [6]: < 50%
